Reference: patent publication US11155851B2, “Compounds and methods relating to lysosomal storage disorders” (University of Washington through its Center of …, priority 2013, dated 2021)

Experiments:
[1] = target: T1, acid-β-glucocerebrosidase (ABG) (Homo sapiens, UniProt P04062); test: Simultaneous detection of multiple enzyme activity in dried blood spots by MS/MS (ABG); type: biochemical; details: Compounds 1 and 7 used simultaneously, substrates 100 μmol/L, dried blood disk, 15 to 24 hours at 37° Celsius
T1 construct: from tissue; host or cells: dried blood spots from adult human venous blood
T1 sequence (P04062 40-536): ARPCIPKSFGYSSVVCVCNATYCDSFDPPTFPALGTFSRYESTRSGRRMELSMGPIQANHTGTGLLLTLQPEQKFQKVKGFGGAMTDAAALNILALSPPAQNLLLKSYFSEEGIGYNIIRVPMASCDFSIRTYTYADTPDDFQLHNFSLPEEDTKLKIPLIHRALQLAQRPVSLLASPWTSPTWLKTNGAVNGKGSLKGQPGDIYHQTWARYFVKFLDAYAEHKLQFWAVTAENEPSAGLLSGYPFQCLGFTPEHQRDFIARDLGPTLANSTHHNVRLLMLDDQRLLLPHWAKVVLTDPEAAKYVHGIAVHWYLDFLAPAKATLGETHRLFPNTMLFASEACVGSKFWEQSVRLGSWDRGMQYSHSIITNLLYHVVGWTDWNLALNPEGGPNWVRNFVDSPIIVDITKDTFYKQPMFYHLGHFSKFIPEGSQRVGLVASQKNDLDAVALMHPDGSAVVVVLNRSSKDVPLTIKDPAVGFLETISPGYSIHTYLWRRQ
Procedure: The substrates of Compounds 1 and 7 are used simultaneously to detect the presence of acid-β-glucocerebrosidase (ABG) and galactocerebroside-β-galactosidase (GALC) respectively. Blood is obtained by venipuncture from consenting adult humans and blotted on filter paper. For each sample, a disk of 3 mm diameter is punched from the areas of dried blood into a well of a 96-well microtiter plate. The blood disk is then incubated directly with an assay solution containing substrates at a final concentration of 100 μmol/L and corresponding internal standards at a final concentration of 1 μmol/L. To the assay solution, a final concentration of 0.5 mol/L sodium acetate with sodium taurocholate buffer is also added (30 μl final assay volume). The assay mixture containing the blood disk is incubated for 15 to 24 hours at 37° Celsius with orbital shaking (150 rpm) in a thermostatic air shaker. After the incubation period, a 100 μl aliquot of 50:50 methanol/ethyl acetate is added to each tube or well to terminate the enzymatic reaction. The reaction is then supplemented with 400 μl HPLC grade ethyl acetate and 200 μl water. […] For mass spectrometry analysis, the electrospray source is operated in positive mode, and the ions are detected in parent-ion scan mode. The amount of enzymatic product is calculated from the ion abundance ratio of the product to the internal standard minus that of a blank.

[2] = target: T1, acid-β-glucocerebrosidase (ABG); test: Detection of enzyme activity in dried blood spots by mass spectrometry (ABG substrate); type: biochemical; details: FIG. 6, dried blood disk, substrate 500 μmol/L, 15 to 24 hours at 37° Celsius
Procedure: The substrates of Compounds 1 and 7 are used to detect the presence of acid-β-glucocerebrosidase (ABG) and galactocerebroside-β-galactosidase (GALC) respectively. Blood is obtained by venipuncture from consenting adult humans and blotted on filter paper. For each sample, a disk of 3 mm diameter is punched from the areas of dried blood into a well of a 96-well microtiter plate. The blood disk is then incubated directly with an assay solution containing substrates at a final concentration of 500 μmol/L and corresponding internal standards at a final concentration of 5 μmol/L. To the assay solution, a final concentration of 0.5 mol/L sodium acetate buffer with sodium taurocholate is also added. The assay mixture containing the blood disk is incubated for 15 to 24 hours at 37° Celsius with orbital shaking (150 rpm) in a thermostatic air shaker. After the incubation period, an aliquot of pure methanol is added to each tube or well to terminate the enzymatic reaction. Before going into the mass spectrometer, the incubated reaction mixture is diluted with pure methanol. For the mass spectrometry analysis, the electrospray source is operated in positive mode, and the ions are detected in parent-ion scan mode. The amount of enzymatic product is calculated from the ion abundance ratio of the product to the internal standard minus that of a blank.

Compound: CCCCCCCCCCCCC/C=C/C(O)C(CO[C@@H]1OC(CO)[C@@H](O)C(O)C1O)NC(=O)CCCC (some centres unmarked) [Compound 1]
- detection of ABG (enzymatic product by MS/MS) [1]: Detection of both ABG and GALC is achieved
- improvement in product detection over a similar compound substituting the C5 amido for a C12 amido [2]: 2 fold
